From patent EP4807001A1, “MODIFICATION TEMPLATE FOR IMPROVING INHIBITORY EFFECT OF DOUBLE-STRANDED OLIGONUCLEOTIDE ON TARGET GENE, COMBINATION THEREOF AND USE THEREOF” (Hangzhou Tianlong Pharmaceutical Co., Ltd., priority 2023, dated 2025)

Experiments:
HBV = test: AAV-HBV mouse model, low dose 0.5 mg/kg (Example 15); assay type: in vivo, AAV-HBV mice; settings: for Log10 HBV DNA (IU/mL) / Log10 HBeAg (S/CO) / Log10 HBsAg (IU/mL) / HBsAb: plasma; for Log10 HBV DNA (IU/mL) / Log10 HBeAg (S/CO) / Log10 HBsAg (IU/mL): AAV-HBV mice, siRNA 0.5 mg/kg s.c. D0/7/14, ETV 0.1 mg/kg daily i.g.
Method: In this example, several sequences were exemplarily selected, such as the sequences C207S-DV32SPG5, C207S-DV29SPG5, C418S-DV34SPd7BG5, and C1575-DV27PG5 from Example 14, as shown in Table 49. The in vivo efficacy of these RNAi agents at a low dose (e.g., 0.5 mg/kg) was analyzed using an AAV-HBV mouse model.
Refer to Example 7. Table 51-10: Details of grouping and dosing

[1] = Plasma ALT levels in AAV-HBV mice (Examples 14-16); assay type: in vivo
Method: At week 4 (D-14) and week 5 (D-7) post-modeling, on the day prior to dosing (D0), and weekly post-dosing, 200 µL of blood was collected from the inner canthus and added to an EDTA-K2 tube, followed by centrifugation at 1000 g for 10 minutes to obtain plasma. The 12 mice in the two groups were subjected to challenge on D60. 200 µL of blood was collected from the inner canthus on D63, D67, D74, and D81, respectively, and added to an EDTA-K2 tube, followed by centrifugation at 1000 g for 10 minutes to obtain plasma. 20 µL of plasma was added to 980 µL of PBS, vortexed thoroughly, and analyzed for HBsAg, HBV DNA, HBeAg, and ALT levels. Separately, 15 µL of plasma was added to 210 µL of PBS, vortexed thoroughly, and analyzed for HBsAb levels. All processed samples to be tested were analyzed by Guangzhou Huayin Medical Research Institute. The remaining plasma was stored at - 80°C.
Blood was collected from all animals via submandibular venipuncture on Days -2, 6, 13, 20, 27, and 34. The collected blood samples were anticoagulated with EDTA and centrifuged at 5000 rpm for 10 minutes to obtain serum. After blood collection, the serum was separated, diluted with PBS, and sent for analysis. A 10 µL aliquot of serum was taken from each sample, diluted to 500 µL with PBS (50-fold dilution), and sent to Beijing DIAN Medical Laboratory Co., Ltd. for analysis of serum HBV DNA, HBeAg, and HBsAg. A 30 µL aliquot of serum was taken from each sample, diluted to 120 µL with PBS (4-fold dilution), and sent to Beijing DIAN Medical Laboratory Co., Ltd. for analysis of serum ALT. The remaining plasma was stored at -80°C.

AGT mRNA = test: Inhibition of AGT mRNA expression in primary human hepatocytes via free uptake, qRT-PCR (Example 24); assay type: cell-based; settings: 0.0064 nM to 100 nM, read-out: IC50 against AGT
Method: The inhibitory effects of the test samples on AGT mRNA expression in primary human hepatocytes were evaluated by qRT-PCR.
The culture medium was pre-warmed at a constant temperature of 37°C for at least 30 minutes. 300 µL of PBS was added to each well of a collagen-coated 24-well plate, which was shaken several times, and the PBS was aspirated. A cryovial containing hepatocytes was removed from liquid nitrogen, placed in a 37°C water bath, and gently shaken until only a small amount of ice crystals remained in the vial. The cell suspension was poured into thawing medium in one step. 1 mL of thawing medium was pipetted to rinse the inner wall of the cryovial 2 to 3 times. The cell suspension in thawing medium was mixed by inversion. The vial was centrifuged at 50 g for 5 minutes at room temperature, with acceleration set to 5 and deceleration set to 3. The cell suspension was diluted to 3 × 10^5 cells/mL in seeding medium, seeded into a 24-well plate at 0.5 mL per well, followed by incubation in an incubator for 24 hours.
The test samples were diluted to 100 to 0.0064 nM in primary human hepatocyte maintenance medium. […]
The RNA expression levels of the target gene in each sample were calculated based on Ct values using the ΔΔCt relative quantification method. Relative expression of the target gene was expressed as 2^-ΔΔCt. […]

## C=C1[C@H](CO)[C@@H](O)C[C@@H]1n1cnc2c(=O)[nH]c(N)nc21 [entecavir]
HBV; D7, low dose 0.5 mg/kg
  Number of mice producing HBsAb: 0
  HBsAb: 30 mIU/mL
HBV; D14, low dose 0.5 mg/kg
  Number of mice producing HBsAb: 0
  HBsAb: 30 mIU/mL
HBV; D21, low dose 0.5 mg/kg
  Number of mice producing HBsAb: 0
  HBsAb: 30 mIU/mL
HBV; D28, low dose 0.5 mg/kg
  Number of mice producing HBsAb: 0
  HBsAb: 30 mIU/mL
HBV; D35, low dose 0.5 mg/kg
  Number of mice producing HBsAb: 0
  HBsAb: 30 mIU/mL
HBV; D42, low dose 0.5 mg/kg
  Number of mice producing HBsAb: 0
  HBsAb: 30 mIU/mL
HBV; D49, low dose 0.5 mg/kg
  Number of mice producing HBsAb: 0
  HBsAb: 30 mIU/mL
HBV; D56, low dose 0.5 mg/kg
  Number of mice producing HBsAb: 0
  HBsAb: 30 mIU/mL
HBV; D0
  Log10 HBV DNA (IU/mL): 6.91 ± 0.58 IU/mL
  Log10 HBeAg (S/CO): 3.73 ± 0.06 S/CO
  Log10 HBsAg (IU/mL): 3.47 ± 0.34 IU/mL
HBV; D7
  Log10 HBV DNA (IU/mL): 4.49 ± 0.54 IU/mL
  Log10 HBeAg (S/CO): 3.72 ± 0.05 S/CO
  Log10 HBsAg (IU/mL): 3.50 ± 0.33 IU/mL
HBV; D14
  Log10 HBV DNA (IU/mL): 3.85 ± 0.24 IU/mL
  Log10 HBeAg (S/CO): 3.72 ± 0.03 S/CO
  Log10 HBsAg (IU/mL): 3.54 ± 0.25 IU/mL
HBV; D21
  Log10 HBV DNA (IU/mL): 3.89 ± 0.31 IU/mL
  Log10 HBeAg (S/CO): 3.66 ± 0.05 S/CO
  Log10 HBsAg (IU/mL): 3.74 ± 0.14 IU/mL
HBV; D28
  Log10 HBV DNA (IU/mL): 3.77 ± 0.37 IU/mL
  Log10 HBeAg (S/CO): 3.71 ± 0.06 S/CO
  Log10 HBsAg (IU/mL): 3.94 ± 0.27 IU/mL
HBV; D35
  Log10 HBV DNA (IU/mL): 3.74 ± 0.25 IU/mL
  Log10 HBeAg (S/CO): 3.66 ± 0.05 S/CO
  Log10 HBsAg (IU/mL): 3.96 ± 0.39 IU/mL
HBV; D42
  Log10 HBV DNA (IU/mL): 3.63 ± 0.08 IU/mL
  Log10 HBeAg (S/CO): 3.68 ± 0.05 S/CO
  Log10 HBsAg (IU/mL): 4.04 ± 0.40 IU/mL
HBV; D49
  Log10 HBV DNA (IU/mL): 3.97 ± 0.13 IU/mL
  Log10 HBeAg (S/CO): 3.69 ± 0.08 S/CO
  Log10 HBsAg (IU/mL): 4.22 ± 0.33 IU/mL
HBV; D56
  Log10 HBV DNA (IU/mL): 4.04 ± 0.32 IU/mL
  Log10 HBeAg (S/CO): 3.70 ± 0.04 S/CO
  Log10 HBsAg (IU/mL): 4.20 ± 0.30 IU/mL
HBV; D-7 (before dosing)
  Log10 HBV DNA (IU/mL): 6.65 ± 0.58 IU/mL
  Log10 HBeAg (S/CO): 3.77 ± 0.06 S/CO
  Log10 HBsAg (IU/mL): 3.36 ± 0.26 IU/mL
[1]; D7, Example 15 (low dose 0.5 mg/kg)
  ALT: 75 U/L
[1]; D14, Example 15 (low dose 0.5 mg/kg)
  ALT: 75 U/L
[1]; D21, Example 15 (low dose 0.5 mg/kg)
  ALT: 75 U/L
[1]; D28, Example 15 (low dose 0.5 mg/kg)
  ALT: 75 U/L
[1]; D35, Example 15 (low dose 0.5 mg/kg)
  ALT: 75 U/L
[1]; D42, Example 15 (low dose 0.5 mg/kg)
  ALT: 75 U/L

## Zilebesiran
AGT mRNA
  IC50: 7.07 nM
